Test results taken from ChEMBL document CHEMBL5113396, “Development of 4-((3-oxo-3-phenylpropyl)amino)benzenesulfonamide derivatives utilizing tail/dual-tail approaches as novel carbonic anhydrase inhibitors” (Eur J Med Chem, 2022).

Key:
Carbonic anhydrase 9 = Carbonic anhydrase 9 (Homo sapiens, UniProt Q16790)
Description: Inhibition of human carbonic anhydrase 9 assessed as inhibition constant incubated for 15 mins prior to testing by phenol red based stopped-flow CO2 hydration assay

T47D [1] = test: Antiproliferative activity against human T47D cells assessed as cell growth inhibition incubated for 4 hrs under normoxia condition by MTT colorimetric assay; type: functional, cell-based
T47D [2] = test: Antiproliferative activity against human T47D cells assessed as cell growth inhibition incubated for 4 hrs under hypoxia condition by MTT colorimetric assay; type: functional, cell-based
MCF7 [3] = test: Antiproliferative activity against human MCF7 cells assessed as cell growth inhibition incubated for 4 hrs under hypoxia condition by MTT colorimetric assay; type: functional, cell-based; details: MCF7, 4 h
MCF7 [4] = test: Antiproliferative activity against human MCF7 cells assessed as cell growth inhibition incubated for 4 hrs under normoxia condition by MTT colorimetric assay; type: functional, cell-based; details: MCF7, 4 h

Row | Ki (Carbonic anhydrase 9) | SMILES | also measured
1 | 38.7 nM | NS(=O)(=O)c1cccc(NCCC(=O)c2ccc3ccccc3c2)c1 | 
2 | 945 nM | NS(=O)(=O)c1ccccc1NCCC(=O)c1ccc2ccccc2c1 | 
3 |  | COc1cccc2c1C(=O)c1c(O)c3c(c(O)c1C2=O)C[C@@](O)(C(=O)CO)C[C@@H]3O[C@H]1C[C@H](N)[C@H](O)[C@H](C)O1 [DOXORUBICIN] | IC50 (T47D [1]): 3200 nM; IC50 (T47D [2]): 3800 nM
4 | 45.3 nM | NS(=O)(=O)c1ccc(C(=O)NNCCC(=O)c2ccccc2)cc1 | 
5 | 9.4 nM | NS(=O)(=O)c1ccc(NCCC(=O)c2ccc3ccccc3c2)cc1 | IC50 (T47D [1]): > 100000 nM; IC50 (MCF7 [3]): 7500 nM; IC50 (MCF7 [4]): 55100 nM; IC50 (T47D [2]): 19000 nM
6 | 87.9 nM | NS(=O)(=O)c1ccc(CCNCCC(=O)c2ccccc2)cc1 | 
7 | 82.5 nM | NS(=O)(=O)c1ccc(NNCCC(=O)c2ccccc2)cc1 | 
8 | 66.7 nM | NS(=O)(=O)c1ccc(NNCCC(=O)c2ccc3ccccc3c2)cc1 | 
9 | 10.2 nM | NS(=O)(=O)c1ccc(NCC/C(=N/CCO)c2ccccc2)cc1 | IC50 (T47D [1]): 43100 nM; IC50 (MCF7 [3]): 5700 nM; IC50 (MCF7 [4]): 29300 nM; IC50 (T47D [2]): 10900 nM
10 | 53.8 nM | NS(=O)(=O)c1ccc(NCC/C(=N\O)c2ccccc2)cc1 | 
11 | 75.7 nM | NS(=O)(=O)c1cccc(NCCC(=O)c2ccccc2)c1 | 
12 | 51.5 nM | NS(=O)(=O)c1ccc(NCCC(=O)c2ccccc2)cc1 | 
13 | 36.3 nM | NS(=O)(=O)c1ccc(C(=O)NNCCC(=O)c2ccc3ccccc3c2)cc1 | 
14 | 313 nM | NS(=O)(=O)c1ccccc1NCCC(=O)c1ccccc1 | 
